US6630500B2, “Selected fused pyrrolocarbazoles” (Cephalon, Inc., priority 2000, dated 2003)

How the values were obtained:
Assay type in all cases: biochemical
MLK1 = target: T1, MLK1 (Homo sapiens, UniProt P80192); assay: Inhibition of Mixed Lineage Kinase-1 (MLK1) activity; conditions: 60 μM ATP; for inhibition at 0.1 µM: 100 nM compound; for IC50: values without % sign
T1 construct: 1 μg/ml of baculoviral GST-MLK1KD; GST (N); made in house
Procedure: The kinase activity of MLK1 was assessed using the Millipore Multiscreen TCA “in-plate” format as described for protein kinase C (Pitt & Lee, J. Biomol. Screening, 1: 47-51, 1996). Briefly, each 50-μl assay mixture contained 20 mM Hepes, pH 7.2, 5 mM EGTA, 15 mM MgCl2, 25 mM β-glycerophosphate, 60 μM ATP, 0.25 μCi [γ-^32P]ATP, 0.1% BSA, 500 μ/ml myelin basic protein (UBI #13-104), 2% DMSO, […], and 1 μg/ml of baculoviral GST-MLK1KD. Samples were incubated for 15 min at 37° C. The reaction was stopped by adding ice cold 50% TCA and the proteins were allowed to precipitate for 30 min at 4° C. The plates were then washed with ice cold 25% TCA. Supermix scintillation cocktail was added, and the plates were allowed to equilibrate for 1-2 hours prior to counting using the Wallac MicroBeta 1450 PLUS scintillation counter.

[1] = target: T2, VEGF receptor (human flk-1, KDR, VEGFR2) kinase domain (Homo sapiens, UniProt P35968); assay: Inhibition of VEGF receptor kinase activity (ELISA); conditions: 40 μM ATP; for inhibition at 0.3 µM: 300 nM compound, read-out: VEGFR2 % inh. @ 300 nM; for IC50: values without % sign
T2 construct: VEGF receptor (human flk-1, KDR, VEGFR2) kinase domain; made in house
Procedure: Fused pyrrolocarbazole compounds were examined for their inhibitory effects on the kinase activity of baculovirus-expressed VEGF receptor (human flk-1, KDR, VEGFR2) kinase domain using the procedure described for the trkA kinase ELISA assay described below. The kinase reaction mixture, consisting of 50 mM Hepes, pH 7.4, 40 μM ATP, 10 mM MnCl2, 0.1% BSA, 2% DMSO, and various concentrations of inhibitor, was transferred to PLC-γ/GST-coated plates. VEGFR kinase was added and the reaction was allowed to proceed for 15 min. at 37° C. Detection of phosphorylated product was accomplished by addition of anti-phosphotyrosine antibody (UBI). A secondary enzyme-conjugated antibody was delivered to capture the antibody-phosphorylated PLC-γ/GST complex. The activity of the bound enzyme was measured via an amplified detection system (Gibco-BRL). Inhibition data were analyzed using the sigmoidal dose-response (variable slope) equation in GraphPad Prism.
Selected isomeric fused pyrrolocarbazole and isoindolone compounds can be tested for their ability to inhibit the kinase activity of baculovirus-expressed human trkA cytoplasmic domain using an ELISA-based assay as previously described (Angeles et al., Anal. Biochem. 236: 49-55, 1996). Briefly, the 96-well microtiter plate is coated with substrate solution (recombinant human phospholipase C-γl/glutathione S-transferase fusion protein (Rotin et al., EMBO J., 11: 559-567, 1992). Inhibition studies are performed in 100 μl assay mixtures containing 50 mM Hepes, pH 7.4, 40 μM ATP, 10 mM MnCl2, 0.1% BSA, 2% DMSO, and various concentrations of inhibitor. The reaction is initiated by addition of trkA kinase and allowed to proceed for 15 minutes at 37° C. An antibody to phosphotyrosine (UBI) is then added, followed by a secondary enzyme-conjugated antibody, alkaline phosphatase-labelled goat anti-mouse IgG (Bio-Rad). The activity of the bound enzyme is measured via an amplified detection system (Gibco-BRL). Inhibition data are analyzed using the sigmoidal dose-response (variable slope) equation in GraphPad Prism.

MLK3 = target: T3, MLK3 (Homo sapiens, UniProt Q16584); assay: Inhibition of Mixed Lineage Kinase-3 (MLK3) activity; conditions: 100 μM ATP; for IC50: values without % sign; for inhibition at 0.1 µM: 100 nM compound
T3 construct: 2 μg/ml of baculoviral GST-MLK3KD; GST (N); made in house
Procedure: (§1) The kinase activity of MLK1 was assessed using the Millipore Multiscreen TCA “in-plate” format as described for protein kinase C (Pitt & Lee, J. Biomol. Screening, 1: 47-51, 1996). Briefly, each 50-μl assay mixture contained 20 mM Hepes, pH 7.2, 5 mM EGTA, 15 mM MgCl2, 25 mM β-glycerophosphate, 60 μM ATP, 0.25 μCi [γ-^32P]ATP, 0.1% BSA, 500 μ/ml myelin basic protein (UBI #13-104), 2% DMSO, 1 μM of test compound, and 1 μg/ml of baculoviral GST-MLK1KD. Samples were incubated for 15 min at 37° C. The reaction was stopped by adding ice cold 50% TCA and the proteins were allowed to precipitate for 30 min at 4° C. The plates were then washed with ice cold 25% TCA. Supermix scintillation cocktail was added, and the plates were allowed to equilibrate for 1-2 hours prior to counting using the Wallac MicroBeta 1450 PLUS scintillation counter.
(§2) Assays were performed using the Millipore Multiscreen plate format as described for MLK1. Briefly, each 50-μl assay mixture contained 20 mM Hepes, pH 7.2, 5 mM EGTA, 15 mM MgCl2, 25 mM β-glycerophosphate, 100 μM ATP, 0.25 μCi [γ-^32P]ATP, 0.1% BSA, 500 μg/ml myelin basic protein (UBI #13-104), 2% DMSO, various concentrations of test compound, and 2 μg/ml of baculoviral GST-MLK3KD. Sample were incubated for 15 min at 37° C. The reaction was stopped by adding ice cold 50% TCA and the proteins were allowed to precipitate for 30 min at 4° C. The plates were then washed with ice cold 25% TCA. Supermix scintillation cocktail was added, and the plates were allowed to equilibrate for 1-2 hours prior to counting.

MLK2 = target: T4, MLK2 (Homo sapiens, UniProt Q02779); assay: Inhibition of Mixed Lineage Kinase-2 (MLK2) activity; conditions: 100 μM ATP
T4 construct: fused on or other part: GST tag
Procedure: as §1
as §2, with “MLK1. Each” for “MLK1. Briefly, each”, “and 3” for “and 2”, “baculoviral GST-MLK2KDLZ. Samples” for “baculoviral GST-MLK3KD. Sample”, “15 min.” for “15 min”

T3 sequence (Q16584 117-379 limits assumed, species assumed): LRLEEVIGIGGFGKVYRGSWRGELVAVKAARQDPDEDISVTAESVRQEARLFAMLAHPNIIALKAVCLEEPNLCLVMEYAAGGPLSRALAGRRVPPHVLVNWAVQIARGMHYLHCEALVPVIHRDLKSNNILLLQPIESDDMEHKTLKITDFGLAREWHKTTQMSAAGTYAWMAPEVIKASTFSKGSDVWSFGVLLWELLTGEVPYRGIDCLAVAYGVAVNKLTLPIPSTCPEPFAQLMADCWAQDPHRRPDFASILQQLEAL
T1 sequence (P80192 144-412 limits assumed, species assumed): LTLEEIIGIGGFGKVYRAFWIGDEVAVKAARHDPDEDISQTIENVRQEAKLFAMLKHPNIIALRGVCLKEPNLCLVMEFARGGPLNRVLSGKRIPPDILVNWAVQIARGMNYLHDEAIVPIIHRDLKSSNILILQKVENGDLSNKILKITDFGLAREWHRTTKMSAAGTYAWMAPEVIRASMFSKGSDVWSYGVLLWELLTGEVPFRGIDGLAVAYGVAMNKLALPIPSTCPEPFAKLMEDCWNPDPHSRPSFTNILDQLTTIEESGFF
T2 sequence (P35968 834-1162 limits assumed): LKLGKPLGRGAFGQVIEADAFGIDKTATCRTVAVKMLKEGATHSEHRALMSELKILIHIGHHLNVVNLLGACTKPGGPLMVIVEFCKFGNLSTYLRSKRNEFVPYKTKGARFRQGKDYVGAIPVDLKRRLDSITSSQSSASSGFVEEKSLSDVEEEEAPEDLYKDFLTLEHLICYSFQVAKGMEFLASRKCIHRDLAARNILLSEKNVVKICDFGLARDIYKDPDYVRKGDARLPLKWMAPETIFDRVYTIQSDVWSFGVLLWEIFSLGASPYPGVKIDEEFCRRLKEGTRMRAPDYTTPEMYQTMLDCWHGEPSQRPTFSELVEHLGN
T4 sequence (Q02779 98-440 limits assumed): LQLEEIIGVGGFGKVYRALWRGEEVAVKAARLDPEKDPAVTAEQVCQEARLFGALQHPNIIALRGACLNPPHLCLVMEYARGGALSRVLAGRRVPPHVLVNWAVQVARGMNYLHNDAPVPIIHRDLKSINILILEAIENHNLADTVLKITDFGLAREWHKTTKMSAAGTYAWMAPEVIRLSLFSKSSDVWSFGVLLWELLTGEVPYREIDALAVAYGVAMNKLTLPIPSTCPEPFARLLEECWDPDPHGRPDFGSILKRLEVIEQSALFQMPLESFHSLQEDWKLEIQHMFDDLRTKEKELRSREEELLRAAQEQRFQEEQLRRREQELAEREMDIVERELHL

| Structure (SMILES) | inhibition at 0.1 µM (MLK1) [%] | inhibition at 0.3 µM [1] [%] | IC50 (MLK3) [nM] | IC50 (MLK1) [nM] | IC50 [1] [nM] | inhibition at 0.1 µM (MLK2; 100 nM compound) [%] | IC50 (MLK2; values without % sign) [nM] | inhibition at 0.1 µM (MLK3) [%] |
| --- | --- | --- | --- | --- | --- | --- | --- | --- |
| CC(C)OCc1ccc2c(c1)c1c3c(c4c(c1n2CCCOC(=O)CCCCCN)Cc1ccccc1-4)C(=O)NC3 [Compound 23] | 31 | 57 | – | – | – | – | – | – |
| CCOC(C)c1ccc2c(c1)c1c3c(c4c(c1n2CCCO)Cc1ccccc1-4)C(=O)NC3 (single isomer, unassigned) [Compound 11] | – | – | 20 | 78 | 65 | – | – | – |
| CC(C)OCc1ccc2c(c1)c1c3c(c4c(c1n2CCCOC(=O)C(N)CCCCN)Cc1ccccc1-4)C(=O)NC3 (stereo not shown) [Compound 19] | 44 | 60 | – | – | – | 28 | – | – |
| CCCCOCc1ccc2c(c1)c1c3c(c4c(c1n2CCCO)Cc1ccccc1-4)C(=O)NC3 [Compound 9] | – | – | 15 | 26 | 18 | – | – | – |
| CCC(C)OCc1ccc2c(c1)c1c3c(c4c(c1n2CCCO)Cc1ccccc1-4)C(=O)NC3 (stereo not shown) [Compound 4] | – | – | 4 | 15 | 12 | – | – | – |
| CC(C)OCc1ccc2c(c1)c1c3c(c4c(c1n2CCCOC(=O)CN)Cc1ccccc1-4)C(=O)NC3 [Compound 18] | – | – | 23 | 47 | 23 | – | – | – |
| CCCCOC(C)c1ccc2c(c1)c1c3c(c4c(c1n2CCCO)Cc1ccccc1-4)C(=O)NC3 (stereo not shown) [Compound 15] | – | – | 27 | 41 | 130 | – | – | – |
| CCOCc1ccc2c(c1)c1c3c(c4c(c1n2CC(C)O)Cc1ccccc1-4)C(=O)NC3 (stereo not shown) [Compound 7] | 85 | – | 30 | – | 25 | – | – | – |
| CCOCc1ccc2[nH]c3c4c(c5c(c3c2c1)CNC5=O)-c1ccccc1C4C(C)O (single isomer, unassigned) [Compound 14] | 93 | – | 9 | – | 72 | – | – | – |
| CC(C)OCc1ccc2c(c1)c1c3c(c4c(c1n2CCCOC(=O)CCCN(C)C)Cc1ccccc1-4)C(=O)NC3 [Compound 21] | 40 | 48 | – | – | – | – | – | – |
| CC(C)OC(C)c1ccc2c(c1)c1c3c(c4c(c1n2CCCO)Cc1ccccc1-4)C(=O)NC3 (stereo not shown) [Compound 16] | 66 | – | – | – | 411 | – | – | 49 |
| CCOCc1ccc2c(c1)c1c3c(c4c(c1n2CCCO)Cc1ccccc1-4)C(=O)NC3 [Compound 1] | – | – | 4 | 21 | 4 | – | – | – |
| CCSCc1ccc2c(c1)c1c3c(c4c(c1n2CCO)Cc1ccccc1-4)C(=O)NC3 [Compound 24] | 62 | 31 | – | – | – | – | – | 55 |
| CC(C)OCc1ccc2c(c1)c1c3c(c4c(c1n2CCCO)Cc1ccccc1-4)C(=O)NC3 [Compound 3] | – | – | 9 | 17 | 7 | – | – | – |
| CCOC(C)c1ccc2c(c1)c1c3c(c4c(c1n2CCCO)Cc1ccccc1-4)C(=O)NC3 (stereo not shown) [Compound 10] | – | – | 15 | 37 | 83 | – | – | – |
| COCc1ccc2c(c1)c1c3c(c4c(c1n2CCCO)Cc1ccccc1-4)C(=O)NC3 [Compound 2] | – | – | 8 | 15 | 17 | – | – | – |

Continued, values first:

| inhibition at 0.1 µM (MLK1) [%] | inhibition at 0.3 µM [1] [%] | IC50 (MLK3) [nM] | IC50 (MLK1) [nM] | IC50 [1] [nM] | inhibition at 0.1 µM (MLK2; 100 nM compound) [%] | IC50 (MLK2; values without % sign) [nM] | inhibition at 0.1 µM (MLK3) [%] | Structure (SMILES) |
| --- | --- | --- | --- | --- | --- | --- | --- | --- |
| – | 37 | – | 17 | – | – | – | – | CCCSCc1ccc2c(c1)c1c3c(c4c(c1n2CCCOC(=O)C(F)(F)F)Cc1ccccc1-4)C(=O)NC3 [Compound 37] |
| – | – | – | 21 | 16 | – | 86 | – | CC(C)OCc1ccc2c(c1)c1c3c(c4c(c1n2CCCO)C(CO)c1ccccc1-4)C(=O)NC3 (stereo not shown) [Compound 40] |
| – | – | 16 | 50 | 111 | – | – | – | CC(O)c1ccc2c(c1)c1c3c(c4c(c1n2CCCO)Cc1ccccc1-4)C(=O)NC3 (stereo not shown) [Compound 33] |
| 60 | 37 | – | – | – | – | – | 62 | CC(O)c1ccc2[nH]c3c4c(c5c(c3c2c1)CNC5=O)-c1ccccc1C4 (stereo not shown) [Compound 35] |
| – | – | 29 | 46 | 77 | – | – | – | CCOCc1ccc2[nH]c3c4c(c5c(c3c2c1)CNC5=O)-c1ccccc1C4 [Compound 31] |
| – | 12 | – | 26 | – | – | – | 41 | COC(C)c1ccc2[nH]c3c4c(c5c(c3c2c1)CNC5=O)-c1ccccc1C4 (racemic) [Compound 36] |
| 55 | 13 | – | – | – | – | – | 56 | O=C1NCc2c1c1c(c3c2c2cc(CSc4ncccn4)ccc2n3CCCO)Cc2ccccc2-1 [Compound 39] |
| 58 | 45 | 30 | – | – | – | – | – | O=C1NCc2c1c1c(c3c2c2cc(CSc4ccccn4)ccc2n3CCCO)Cc2ccccc2-1 [Compound 38] |
| – | 33 | 19 | 24 | – | – | – | – | CC(C)OCc1ccc2[nH]c3c4c(c5c(c3c2c1)CNC5=O)-c1ccccc1C4 [Compound 32] |
| – | – | – | 45 | 200 | – | – | 43 | COc1ccc2[nH]c3c4c(c5c(c3c2c1)CNC5=O)-c1ccccc1C4 [D, reference compound] |
| 45 | – | – | – | 7 | – | – | 32 | CCC(O)c1ccc2c(c1)c1c3c(c4c(c1n2CCCO)Cc1ccccc1-4)C(=O)NC3 (stereo not shown) [Compound 34] |
| – | – | – | 22 | 57 | – | – | – | CC(C)SCc1ccc2c(c1)c1c3c(c4c(c1n2CCCO)Cc1ccccc1-4)C(=O)NC3 [Compound 27] |
| – | 34 | 74 | 76 | – | – | – | – | O=C1NCc2c1c1c(c3c2c2cc(CO)ccc2n3CCO)Cc2ccccc2-1 [Compound 28] |
| – | – | – | 30 | 302 | – | – | – | O=C1NCc2c1c1c(c3[nH]c4ccc(CO)cc4c23)Cc2ccccc2-1 [Compound 30] |
| – | – | 12 | 22 | 21 | – | – | – | CCSCc1ccc2c(c1)c1c3c(c4c(c1n2CCCO)Cc1ccccc1-4)C(=O)NC3 [Compound 25] |
